# From paper PMC9259591, “Irigenin, a novel lead from Iris confusa for management of Helicobacter pylori infection with selective COX-2 and HpIMPDH inhibitory potential” (Scientific Reports, 2022)
# “And” between values parts separate entries of the source, which are not always exact repeats. Equal entries are not always repeated. Where two headings read alike, the source gives them in different places.
# Key:
# ovine COX-1 = molecular target: T1, ovine COX-1 (Ovis aries, UniProt P05979); assay: COX-1 inhibitory activity, colourimetric COX inhibitor screening assay kit; type: biochemical
# T1 construct: purchased
# Protocol: (§1) The inhibitory COX activity was assayed colourimetrically by examining the inhibition of the ovine COX-1 and human recombinant COX-2 enzymes as described by George et al.[38], using a COX inhibitor screening assay kit. The detailed procedures were described in the supplementary file.
# (§2) The inhibitory COX activity was assayed colourimetrically by examining the inhibition of the ovine COX-1 and human recombinant COX-2 enzymes as described by George et al. ^2, using a COX inhibitory screening assay kit. This assay determines the COX peroxidase activity by monitoring the appearance of N,N,N',N'-tetramethyl-p-phenylenediamine (TMPD). Assay buffer (150 μL 0.1 M Tris–HCl pH 8.0), 10 μL heme and 10μL enzyme (COX-1 or COX-2) were added in each well. Ten μL of each tested sample concentration was added to each well and incubated for 15 minutes at 37°C. After incubation, 20 μL of TMPD was added to each well. For initiating the reaction, 10 μL 10 mM arachidonic acid was added and the plates were further incubated for another 2 minutes at 37°C. For terminating the reaction, 50 μL 1 N HCl and saturated stannous chloride were added.
# (§3) Reaction mixture containing assay buffer and heme acted as the blank and a mixture with either COX-1 or COX-2 assay buffer and heme acted as the 100% initial activity (IA). […] The absorbances of oxidized TMPD (blue colour) were read in ELISA plate reader at 590 nm. The % inhibition was calculated using the following formula:
# (§4) COX % Inhibition= [(100%IA−Inhibitor)/ 100% IA x 100]. Where, IA: 100% initial activity.
# (§5) The concentration at which the tested sample produces 50% inhibition of COX-1 and/or COX-2 (IC50) was determined. The selectivity index (SI) was calculated also as IC50 (COX-1)/ (COX-2).
# [1] = tested on: RAW 264.7 macrophage cell line (NO); assay: nitric oxide (NO) inhibitory activity in lipopolysaccharide-stimulated macrophages; type: cell-based, murine; conditions: Mus musculus, RAW264.7, RAW 264.7 cells, 1 µg/mL lipopolysaccharide
# Protocol: The detailed procedures were described in the supplementary file.
# The cell was incubated at 37 °C in 5% carbon dioxide. RAW 264.7 cells were seeded onto a 96-well plate (1×10^5 cells/well) and incubated for 24 h. […] Followed by incubation, the cells stimulated with 1µg/mL of lipopolysaccharide for another 24 h. The supernatant was gently transferred to new 96-well plates and used for NO determination. L-N 6 - (1-iminoethyl) lysine hydrochloride), is used as standard drug. The absorbance (Abs) was measured in a microplate reader at 540 nm ^3. The percentage inhibition was calculated using the following formula:
# Inhibition (%) = 1-[Control-Test] Control × 100.
# human recombinant COX-2 = molecular target: T2, human recombinant COX-2 (Homo sapiens, UniProt P35354); assay: COX-2 inhibitory activity, colourimetric COX inhibitor screening assay kit; type: biochemical
# T2 construct: purchased
# T2 sequence (P35354 18-604): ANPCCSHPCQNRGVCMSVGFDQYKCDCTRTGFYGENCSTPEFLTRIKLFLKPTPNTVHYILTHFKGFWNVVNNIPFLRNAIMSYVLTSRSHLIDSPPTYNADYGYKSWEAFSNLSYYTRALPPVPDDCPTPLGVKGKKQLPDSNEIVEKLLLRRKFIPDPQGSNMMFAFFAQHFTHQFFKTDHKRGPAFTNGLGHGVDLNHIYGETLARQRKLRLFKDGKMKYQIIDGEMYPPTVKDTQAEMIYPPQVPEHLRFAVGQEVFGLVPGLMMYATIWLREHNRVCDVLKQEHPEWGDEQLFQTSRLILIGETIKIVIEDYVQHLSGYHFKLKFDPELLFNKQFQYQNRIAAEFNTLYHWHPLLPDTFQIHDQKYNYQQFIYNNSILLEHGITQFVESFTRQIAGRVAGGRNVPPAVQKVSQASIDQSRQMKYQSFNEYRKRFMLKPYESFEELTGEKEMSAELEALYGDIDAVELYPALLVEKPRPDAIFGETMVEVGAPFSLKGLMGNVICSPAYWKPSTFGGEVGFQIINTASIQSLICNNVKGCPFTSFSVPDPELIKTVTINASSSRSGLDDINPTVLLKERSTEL
# Protocol: as §1, §2, §3, §4, §5
# H. pylori ATCC 700392 = assay: anti-Helicobacter pylori activity, microwell dilution method with MTT; type: cell-based; conditions: for MIC: read-out: MIC (H. pylori)
# Protocol: The anti-Helicobacter pylori activity of the PF and NPF as well as the isolated compounds was evaluated against H. pylori ATCC 700392 (type strain, obtained from the American Type Culture Collection unit (ATCC), using microwell dilution method and clarithromycin as standard drug[37]. The detailed procedures were described in the supplementary file.
# The anti-Helicobacter pylori activity of the PF and NPF as well as the isolated compounds was evaluated against H. pylori ATCC 700392 (a type strain, obtained from the American Type Culture Collection unit (ATCC), using microwell dilution method and clarithromycin as standard drug ^1. The tested samples were prepared in dimethyl sulfoxide and successive ten twofold dilutions (125- 0.24 µg/mL) were carried out in a 96-well plate. Each microplate well included forty μL of Brain Heart Infusion growth medium and 10% fetal bovine serum (FBS), ten μL of inoculum and fifty μL of the tested sample. The plates were incubated for 3 days, in 5% oxygen, 10% carbon dioxide, 85 % nitrogen atmosphere at 37°C. Forty μL of 3- (4, 5-dimethyl-thiazol-2-yl)- 2,5-diphenyl-tetrazolium bromide (MTT) at a final concentration of 0.5 mg/mL freshly prepared in H2O was added to each well and incubated for 30 min. The bacteria were biologically active when change to purple color was observed ^1. While no change in MTT color indicated inhibition. Solvent control (DMSO) and the standard antibiotic (clarithromycin) were used as negative and positive controls, respectively. The H. pylori inhibition % was calculated using the given formula:
# % Inhibition = Abs control – Abs sample × 100 /Abs control.
# T1 sequence (P05979 25-600): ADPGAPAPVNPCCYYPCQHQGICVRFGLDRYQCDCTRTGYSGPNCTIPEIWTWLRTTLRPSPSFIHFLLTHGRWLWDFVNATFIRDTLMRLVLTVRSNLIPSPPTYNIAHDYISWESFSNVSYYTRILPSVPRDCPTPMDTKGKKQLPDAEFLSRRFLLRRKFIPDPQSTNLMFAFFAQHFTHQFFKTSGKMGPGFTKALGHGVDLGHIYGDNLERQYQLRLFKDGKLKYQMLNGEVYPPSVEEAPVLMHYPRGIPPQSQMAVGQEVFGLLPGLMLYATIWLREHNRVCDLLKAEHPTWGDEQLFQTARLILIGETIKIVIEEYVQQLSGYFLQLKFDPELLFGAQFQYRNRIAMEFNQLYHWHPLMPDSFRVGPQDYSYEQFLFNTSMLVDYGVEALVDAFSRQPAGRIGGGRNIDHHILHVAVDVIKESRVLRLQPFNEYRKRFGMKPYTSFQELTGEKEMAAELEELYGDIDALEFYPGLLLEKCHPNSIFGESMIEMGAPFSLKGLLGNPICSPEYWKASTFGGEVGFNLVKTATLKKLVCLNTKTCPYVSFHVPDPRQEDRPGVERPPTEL
smiles,measurement,setting,value
"COc1c(O)cc2occ(-c3ccc(O)cc3)c(=O)c2c1O [Tectorigenin (P4), 4′,5,7-trihydroxy-6-methoxyisoflavone]",IC50,ovine COX-1,407 µM
same,IC50,[1],> 416 µM
same,IC50,[1]; ND = not detected,> 125 µg/mL
same,IC50,"human recombinant COX-2; human recombinant COX-2, ND = not detected",189 µM
same,SI (COX-1/COX-2),human recombinant COX-2; selectivity index calculated as IC50 (COX-1)/(COX-2),2.16
same,MIC,"H. pylori ATCC 700392; Helicobacter pylori, ATCC700392",15.6 µg/mL and 52 µM
same,MIC (H. pylori),"H. pylori ATCC 700392; concentration required for 100% inhibition, H. pylori ATCC 700392, ND = not detected",15.63 µg/mL
same,MIC,"H. pylori ATCC 700392; concentration required for 100% inhibition, H. pylori ATCC 700392",52.05 µM
